From article PMC12030033, “Design and Synthesis of Bis-Chalcones as Curcumin Simplified Analogs and Assessment of Their Antiproliferative Activities Against Human Lung Cancer Cells and Trypanosoma cruzi Amastigotes” (Pharmaceuticals, 2025) come the findings set out here.

One series concerns A549 cells. Description: Antiproliferative activity (MTT) against A549 tumor cell line. It counts as cell-based, human.
A further series has as its system H460 cells. The series is described as follows: Antiproliferative activity (MTT) against H460 tumor cell line. It counts as cell-based, human.
Series [1] addresses T. cruzi amastigotes (Tulahuen C2C4-LacZ). Description: Trypanocidal activity against intracellular amastigotes (CPRG, beta-galactosidase). It counts as cell-based, Trypanosoma cruzi. How it is done:
The antiparasitic activity assays used the Tulahuen C2C4-LacZ strain of the Trypanosoma cruzi parasite, being evaluated in the amastigote forms. […] Trypomastigote forms were collected from the culture supernatant between the 5th and 10th day after infection and separated from non-adherent cells by differential centrifugation. Epimastigote evolutionary form parasites were cultivated in LIT medium (Liver Infusion Tryptose), supplemented with hemin (25 mg/L) + 10% FBS, and incubated at 28 °C, performing successive passages every 6–7 days.
Non-internalized parasites were removed by three successive washes with PBS, followed by treatment with increasing concentrations of the hybrids (0.64–100 µM) in triplicates, pre-diluted in DMEM + 2% FBS. Untreated vehicle (0.2% v/v DMSO) and blank (no added parasites) controls were included in the experiment. Increasing concentrations of Benznidazole were used as the positive control. After incubation for 5 days (120 h), 30 µL of 0.5 mM chlorophenol red substrate β-galactopyranoside (CPRG) in PBS was added with 0.9% v/v of Igepal CA-630.

Another series has as its system LLC-MK2 (host cells). The series is described as follows: Cytotoxicity (MTT) on LLC-MK2 host cells. The format is cell-based. The settings on record: 120 h, MTT. An excerpt: Mammalian cells were used to evaluate the cytotoxicity of the tested compounds. […] Cells were dissociated from the monolayer by treatment with a solution containing 0.25% w/v trypsin and 0.04% EDTA.

In series [2] the test system is peripheral blood mononuclear cells (PBMC). Description: Cytotoxicity (MTT) on peripheral blood mononuclear cells. The settings on record: 72 h, MTT.
Description: (§1) Cells were treated with increasing concentrations of the hybrids in triplicates, pre-diluted in DMEM + 2% FBS, and incubated for 120 h. The toxic effect of the molecules was also evaluated on human lung cancer cell lines (A549 and H460), as well as on PBMC. […] In all experiments, untreated controls, vehicle (0.2% v/v DMSO), and blanks (no added cells) were included. […] Then, 20 µL of 3.0 mM MTT saline was added and incubated for another 1.5 h. The supernatant was removed, and the MTT formazan crystals were dissolved by adding 120 µL/well of DMSO. After incubation for 1.5 h to dissolve the MTT crystals away from light and at 37 °C, the absorbance was measured at λ = 570 nm using a plate reader.

Description for A549 cells: as §1
Description for H460 cells: as §1

Consider “(1E,6E)-1-(4-Hydroxy-3-methoxyphenyl)-7-(4-hydroxyphenyl)hepta-1,6-dien-3,5-dione [Compound 2, reference compound]”, for which the IC50 (usually the concentration that gives 50% inhibition) stood at 73.3 ± 6.98 µM with A549 cells (72 h, MTT, read-out: A549 IC50); 25.1 ± 5.55 µM in the series with H460 cells (72 h, MTT, read-out: H460 IC50); 31.3 ± 0.77 µM in series [1] (120 h, in LLC-MK2 host cells); 22.7 ± 3.71 µM in the series on LLC-MK2 (host cells). Further, in the series with A549 cells (PBMC LD50 vs A549 IC50), the “Selective Index SI A549” value is on record as 1.96. Also, the “Selective Index SI H460” value in the series on H460 cells (PBMC LD50 vs H460 IC50) turned out to be 5.76. The “Selective Index” value in series [1] (LLC-MK2 IC50 vs T. cruzi amastigote IC50) is listed as 0.72. The “PBMC LD50” value in series [2] worked out at 144.3 ± 12.30 µM.
